Assay results from patent US20040053872A1, “New sequences” (priority 2000, published 2004).
Read-outs that look alike come from different tables or passages of the source. Strand notation (5' to 3'): a small letter for the sugar, then the base; units joined by * are phosphorothioate-linked, units joined directly phosphodiester-linked; [ ] holds rarer units or linkages, { } end groups; capitals alone tell only the bases. r = 2'-OH (RNA)

Columns and labels:
[1] = biological target: T1, recombinant HIV-1 RT K103N/E478Q (Human immunodeficiency virus type 1 group M subtype B, UniProt P03366, E1077Q/K702N); assay: RT assay: inhibition of RNA dependent DNA polymerisation (modified Lenti RT assay); assay type: biochemical; details: read-out: IC50 of indicated inhibitor in RT assay
T1 construct: performed by recombinant HIV-1 RT:s with defined
Description: (§1) The flourimetric RT assay (Cavidi® Lenti RT activity kit), available from Cavidi Tech, Uppsala, Sweden, was used for the determination of RT activity. In short, poly(rA) covalently bound to the wells of a 96 well microtiter plate serves as template for the incorporation of 5-bromodeoxyuridine 5′-triphosphate (BrdUTP) during the reverse transcription step at 33° C. The amount of bromodeoxyuridine monophosphate (BrdUMP) incorporated into DNA is detected with an alkaline phosphatase (Ap) conjugated, anti-BrdU monoclonal antibody. An Ap substrate, 4-methylumbelliferyl phosphate, is finally used for fluorimetric product detection.
(§2) (i) Protocol for determination of inhibition of RNA dependent DNA polymerisation: The inhibition studies were performed in a modified Lenti RT assay. […] The enzyme reaction was initiated by addition of 100 μl aliquots of the enzyme/inhibitor mixture to each well of a microtiter plate containing 100 μl RT reaction mixture per well. The polymerase reaction was allowed to proceed for 3 hours at 33° C., whereupon the reaction was terminated by a wash of the plate. […] The amount of RT used was standardised to an activity corresponding to 90-130 pg (7-10×10^−16 mol) reference HIV-1 RT per well
(§3) The capacity of the indicated substances to inhibit the enzymes in a panel of recombinant HIV 1 subtype B RTs was studied according to “Protocol for determination of inhibition of RNA dependent DNA polymerisation” (protocol (i) above). The final nucleotide substrate (BrdUTP) concentration was 0.35 μM, and the primer (odT22) amount was 0.03 ng per well.

[2] = biological target: T2, recombinant HIV-1 RT L100I (Human immunodeficiency virus type 1 group M subtype B, UniProt P03366, L699I); assay: as above; assay type: biochemical; details: read-out: IC50 of indicated inhibitor in RT assay
T2 construct: performed by recombinant HIV-1 RT:s with defined
Description: as §1, §2, §3

[3] = biological target: T3, recombinant HIV-1 RT T215Y (Human immunodeficiency virus type 1 group M subtype B, UniProt P03366, T814Y); assay: as above; assay type: biochemical; details: read-out: IC50 of indicated inhibitor in RT assay
T3 construct: performed by recombinant HIV-1 RT:s with defined
Description: as §1, §2, §3

[4] = biological target: T4, recombinant HIV-1 RT, ref RT (HIV type B, clone BH 10) (Human immunodeficiency virus type 1 group M subtype B, UniProt P03366); assay: as above; assay type: biochemical; set-up: performed by recombinant HIV-1 RT:s with defined; details: enzyme/inhibitor preincubated 30 minutes at 33° C., BrdUTP 0.35 μM, odT22 0.03 ng per well, 3 hours, read-out: IC50 of indicated inhibitor in RT assay
Description: as §1
(i) Protocol for determination of inhibition of RNA dependent DNA polymerisation: The inhibition studies were performed in a modified Lenti RT assay. The inhibitors were serially diluted in five steps, whereupon enzyme dilution was added and the enzyme/inhibitor mixtures were incubated for 30 minutes at 33° C. The enzyme reaction was initiated by addition of 100 μl aliquots of the enzyme/inhibitor mixture to each well of a microtiter plate containing 100 μl RT reaction mixture per well. The polymerase reaction was allowed to proceed for 3 hours at 33° C., whereupon the reaction was terminated by a wash of the plate. […] The amount of RT used was standardised to an activity corresponding to 90-130 pg (7-10×10^−16 mol) reference HIV-1 RT per well […]

[5] = biological target: T4, recombinant HIV-1 RT, ref RT (HIV type B, clone BH 10); set-up: performed by recombinant HIV-1 RT:s with defined; details: immobilised primer/template, binding 90 min at 33° C., read-out: Inhibition of binding to template/primer (BIC50)
Description: (iii) Protocol for RT binding inhibition (BIC) assay: The study was performed in a modified DNA polymerase assay. The inhibitors were serially diluted in five steps, enzyme dilution was added and the enzyme/inhibitor mixtures were incubated for 30 minutes at 33° C. Aliquots of the enzyme/inhibitor mixture were transferred to each well of a microtiter plate containing either immobilised primer, or primer/template. The enzyme was allowed to bind to the immobilised polymer for 90 min at 33° C. The amount of RT used was standardised to an activity corresponding to 40-60 pg (3.3-5.0×10^−16 mol) reference HIV-1 RT per well. The plates were then washed to remove unbound enzyme whereupon the amount of bound enzyme was determined by addition of the appropriate reaction solution for polymerisation (i e a reaction solution devoid of primer for studies of primer binding and a reaction solution devoid of both primer and template for studies of binding to primed template). The polymerase reaction was allowed to proceed for 3 hours at 33° C., whereupon the reaction was terminated by a wash of the plate.
The capacity of the indicated substances to inhibit the binding to primer or to primed DNA template of a panel of recombinant HIV 1 subtype B RTs was studied according to “Protocol for RT binding inhibition (BIC) assay” (protocol (iii) above).

[6] = RT and inhibitor added directly to the assay mixture without preincubation
[7] = enzyme/inhibitor preincubated 30 minutes at 33° C., BrdUTP 0.35 μM, odT22 0.03 ng per well, 3 hours

Q: Which IC50 [1, 6] does the source give for “substance 199: 35-mer RNA molecule having the sequence set out in SEQ ID NO:5; similar to SEQ ID NO:4 with some naturally occurring nucleotide derivatives (GCUCAGNCGGNAGAGCANCAGACUUUUAANCUGAN; RNA, backbone, methylation of C and the base at N not given here; naturally occurring modified nucleosides at n positions)” here?
A: The IC50 was 9.8 nM.

Q: And the IC50 [1, 7]?
A: Its IC50 is 10 nM.

Q: And the IC50 [2, 6]?
A: Its IC50 is 7.4 nM.

Q: And the IC50 [2, 7]?
A: Its IC50 is 10 nM.

Q: What about the IC50 [3, 6] of the same substance?
A: The IC50 was 9.3 nM.

Q: What about the IC50 [3, 7] of the same substance?
A: Its IC50 is 11 nM.

Q: And the IC50 [4]?
A: The IC50 was 6.6 nM.

Q: What about the IC50 [5] of the same substance?
A: The IC50 was 7 nM.

Q: How did the IC50 [1, 7] turn out when “substance 198: 15-mer RNA phosphorothioate with the base sequence of tRNALys3 anticodon stem and loop, SEQ ID NO:7 (rC*rA*rG*rA*rC*rU*rU*rU*rU*rA*rA*rU*rC*rU*rG) [reference compound]” was run?
A: Its IC50 is 1100 nM.

Q: What about the IC50 [2, 7] of the same substance?
A: Its IC50 is 450 nM.

Q: What about the IC50 [3, 7] of the same substance?
A: Its IC50 is 340 nM.

Q: What about the IC50 [4] of the same substance?
A: Its IC50 is 470 nM.

Q: And the IC50 [5]?
A: Its IC50 is 900 nM.
